Results on one compound are retold here after patent publication US20220402917A1, “COMPOUND AS SMALL MOLECULE INHIBITOR PD-1/PD-L1 AND APPLICATION THEREOF” (MEDSHINE DISCOVERY INC., priority 2019, published 2022).

One experiment deals with PD1/PD-L1 (Homo sapiens, UniProt Q9NZQ7). Nature of the experiment: NFAT activity test (TCR Activitor/PD-L1 CHO cells with PD-1/NFAT Reporter-Jurkat cells). The class given is cell-based. More on the design: host or cells: TCR Activitor/PD-L1 CHO cells; PD-1/NFAT Reporter-Jurkat cells. To be noted: TCR Activitor/PD-L1 CHO cells + PD-1/NFAT Reporter-Jurkat cells, 5 hours, luciferase. The method, boiled down: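 TCR activator/PD-L1 CHO cells were pretreated 30 min at 37 °C with compound (20 μM to 0.25 nM, 5-fold steps, 2% DMSO). PD-1/NFAT reporter Jurkat cells were then added for 5 h at 37 °C. NFAT-driven luciferase read by Bright-Glo luminescence, normalised to Min/Max, IC50 from 4-parameter fit.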
PD1/PD-L1, sequence (Q9NZQ7 19-290): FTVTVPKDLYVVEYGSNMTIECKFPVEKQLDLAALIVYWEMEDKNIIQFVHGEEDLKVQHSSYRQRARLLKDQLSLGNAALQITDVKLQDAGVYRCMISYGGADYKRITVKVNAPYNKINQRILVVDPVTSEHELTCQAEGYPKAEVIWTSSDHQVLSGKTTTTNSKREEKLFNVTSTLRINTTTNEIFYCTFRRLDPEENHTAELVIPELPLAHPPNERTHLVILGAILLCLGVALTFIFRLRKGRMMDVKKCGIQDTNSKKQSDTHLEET

The target in experiment [1] is T1, PD-L1 in MDA-MR-231 cells (Homo sapiens, UniProt Q9NZQ7).
T1 construct: endogenous in cells; host or cells: MDA-MB-231
T1 sequence (Q9NZQ7 19-290): as above
Nature of the experiment: Effect on expression level of PD-L1 in MDA-MR-231 cells (FACS). The class given is cell-based. To be noted: 24 hours incubation, FACS detection of cell surface PD-L1. The procedure, abridged:
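MDA-MB-231 cells (1×10^5/well) were incubated 24 h at 37 °C with 5-fold serially diluted compounds. Cells were detached with 10 mM EDTA, then stained with anti-human PD-L1 and LIVE/DEAD dye (4 °C, 30 min) and fixed. Surface PD-L1 was measured by flow cytometry.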

`COc1nc(-c2cccc(-c3cccc(NC(=O)c4cc(C)c5c(n4)CN(CCO)CC5)c3Cl)c2Cl)cnc1CN1CC(O)C1` [Compound 21]: at PD1/PD-L1, the “Maximum effect (induction fold)” value is on record as 3.96 induction fold. Moreover, the IC50 at PD1/PD-L1 (read-out: IC50, inhibitory activity on PD1/PD-L1 binding (NFAT activity test)) came to 13.9 nM; in experiment [1], 5.73 nM.
